Results reported in ChEMBL document CHEMBL6096671, “Discovery of VU6024578/BI02982816: An mGlu1 Positive Allosteric Modulator with Efficacy in Preclinical Antipsychotic and Cognition Models” (J Med Chem, 2024).
Activity calls are given as the source filed them. The calls are words filed in the database; no cut-off is given here.

Assays:
[1] = target: Metabotropic glutamate receptor 5 (Homo sapiens, UniProt P41594); assay: Positive allosteric modulation of human mGlu5 receptor
[2] = Drug metabolism in human liver microsomes assessed as furanyl ring opening incubated for 60 mins; format: ADME, Microsome; settings: 1 h
[3] = tested on: Rattus norvegicus; assay: Antipsychotic activity in male Sprague-Dawley rat assessed as reduction in amphetamine-induced locomotor activity by measuring reversal of total ambulation at 3 mg/kg, po pretreated for 1 hrs followed by amphetamine addition and measured at 95 to 180 mins relative to control; format: functional; set-up: scale not given: the % may be the effect or the level left
[4] = tested on: Mus musculus; assay: Antipsychotic efficacy against amphetamine-induced hyperlocomotion in male C57Bl/6 mouse assessed as reversal of hyperlocomotive state administered ip and pretreated with compound followed by amphetamine addition for 60 mins and measured after 90 mins; format: functional, organism-based; settings: dose 3-30 mg/kg
[5] = tested on: Rattus norvegicus; assay: Antipsychotic activity in male Sprague-Dawley rat assessed as reduction in amphetamine-induced locomotor activity by measuring reversal of total ambulation at 10 mg/kg, po pretreated for 5 hrs followed by amphetamine addition and measured at 95 to 180 mins relative to control; format: functional; set-up: scale not given: the % may be the effect or the level left
[6] = Unbound initial plasma concentration in male dog at 0.5 mg/kg, iv; format: ADME, organism-based, Canis lupus familiaris; settings: in vivo
[7] = target: Metabotropic glutamate receptor 3 (Rattus norvegicus, UniProt P31422); assay: Positive allosteric modulation of rat mGlu3 receptor
Chain of Metabotropic glutamate receptor 3 (Rattus norvegicus, UniProt P31422) (P31422 whole entry): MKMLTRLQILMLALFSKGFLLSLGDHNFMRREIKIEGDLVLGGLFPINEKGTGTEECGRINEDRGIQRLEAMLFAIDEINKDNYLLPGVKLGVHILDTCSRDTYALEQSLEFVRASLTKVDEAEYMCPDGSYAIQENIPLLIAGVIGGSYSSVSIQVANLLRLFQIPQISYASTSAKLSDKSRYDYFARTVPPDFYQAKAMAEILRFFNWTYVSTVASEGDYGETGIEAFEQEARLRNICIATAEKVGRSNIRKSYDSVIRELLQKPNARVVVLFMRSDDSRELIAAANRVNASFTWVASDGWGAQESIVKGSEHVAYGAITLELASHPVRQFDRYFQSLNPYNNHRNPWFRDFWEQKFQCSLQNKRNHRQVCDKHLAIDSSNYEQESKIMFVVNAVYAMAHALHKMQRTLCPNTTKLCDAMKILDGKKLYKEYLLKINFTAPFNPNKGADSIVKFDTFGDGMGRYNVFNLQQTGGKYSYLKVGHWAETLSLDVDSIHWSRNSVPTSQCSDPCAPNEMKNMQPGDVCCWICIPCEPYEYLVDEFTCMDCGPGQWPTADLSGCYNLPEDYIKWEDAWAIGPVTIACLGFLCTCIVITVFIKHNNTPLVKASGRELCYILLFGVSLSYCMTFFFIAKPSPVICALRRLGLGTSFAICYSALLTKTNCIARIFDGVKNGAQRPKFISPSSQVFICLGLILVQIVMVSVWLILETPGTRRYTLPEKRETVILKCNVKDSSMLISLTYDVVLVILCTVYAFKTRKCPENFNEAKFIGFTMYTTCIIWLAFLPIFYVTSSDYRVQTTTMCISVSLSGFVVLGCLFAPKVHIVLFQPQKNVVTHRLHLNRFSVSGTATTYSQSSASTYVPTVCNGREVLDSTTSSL

[8] = target: Metabotropic glutamate receptor 4 (Homo sapiens, UniProt Q14833); assay: Positive allosteric modulation of human mGlu4 receptor
[9] = Drug metabolism in rat liver microsomes assessed as furanyl ring oxidation incubated for 60 mins; format: ADME, Microsome; settings: 1 h
[10] = Toxicity in male Wistar rat assessed as reduction in non rapid eye movement sleep at 1 to 10 mg/kg, po measured at 30 to 120 mins post treatment by EEG analysis; format: organism-based; settings: in vivo, dose lower 1 mg/kg, time lower 30 min, dose upper 10 mg/kg, time upper 120 min
[11] = Drug metabolism in human liver microsomes assessed as furanyl ring oxidation incubated for 60 mins; format: ADME, Microsome; settings: 1 h
[12] = target: Metabotropic glutamate receptor 7 (Rattus norvegicus, UniProt P35400); assay: Positive allosteric modulation of rat mGlu7 receptor
[13] = Unbound brain concentration in amphetamine-induced hyperlocomotion male Sprague-Dawley rat model at 10 mg/kg, po; format: ADME, organism-based; settings: in vivo
[14] = Toxicity in male Wistar rat assessed as reduction in rapid eye movement sleep at 1 to 10 mg/kg, po measured at 30 to 120 mins post treatment by EEG analysis; format: organism-based; settings: in vivo, dose lower 1 mg/kg, time lower 30 min, dose upper 10 mg/kg, time upper 120 min
[15] = tested on: Mus musculus; assay: Reversal of MK-801 induced N1 sensory gating deficit in male C57BL/6JRj mouse model assessed as improvement in cognitive deficits at 10 mg/kg, sc; format: functional, organism-based
[16] = Unbound brain concentration in amphetamine-induced hyperlocomotion male Sprague-Dawley rat model at 10 mg/kg, po measured after 6.5 hrs; format: ADME, organism-based; settings: in vivo
[17] = Antagonist activity at peripheral Benzodiazepine receptor (unknown origin); set-up: species or system Homo sapiens
[18] = Unbound brain concentration in male Sprague-Dawley rat at 3 mg/kg, po in 10% tween 80 formulation measured at 15 to 420 mins by LC-MS/MS analysis; format: ADME, organism-based; settings: in vivo, time 15-420 min
[19] = target: Metabotropic glutamate receptor 2 (Rattus norvegicus, UniProt P31421); assay: Positive allosteric modulation of rat mGlu2 receptor
[20] = Stability of compound at pH 2.2; format: physicochemical; settings: buffer
[21] = target: Metabotropic glutamate receptor 8 (Homo sapiens, UniProt O00222); assay: Positive allosteric modulation of human mGlu8 receptor
[22] = Toxicity in male Wistar rat assessed as increase in motor activity at 10 mg/kg, po measured at 120 mins post treatment by EEG analysis; format: organism-based; settings: in vivo, 2 h
[23] = Unbound brain concentration in amphetamine-induced hyperlocomotion male Sprague-Dawley rat model at 3 mg/kg, po pretreated for 2.5 hrs; format: ADME, organism-based; settings: in vivo
[24] = Stability of compound at pH 7.4; format: physicochemical; settings: buffer
[25] = Toxicity in male Wistar rat assessed as reduction in delta power at 10 mg/kg, po measured at 60 to 240 mins post treatment by EEG analysis; format: organism-based; settings: in vivo, time 60-240 min
[26] = Mutagenicity in Salmonella typhimurium by Ames test; format: toxicity; settings: salmonella enterica subsp. enterica serovar typhimurium
[27] = tested on: Mus musculus; assay: Reversal of MK-801 induced deficits in sc dosed male C57BL/6JRj mouse model assessed as 40 Hz ASSR in prefrontal cortex measured after 15 mins; format: functional, organism-based; settings: dose 0.8-3 mg/kg
[28] = Unbound brain concentration in amphetamine-induced hyperlocomotion male Sprague-Dawley rat model at 3 mg/kg, po measured after 2.5 hrs; format: ADME, organism-based; settings: in vivo
[29] = Toxicity in male Wistar rat assessed as reduction in alpha power at 10 mg/kg, po measured at 60 to 240 mins post treatment by EEG analysis; format: organism-based; settings: in vivo, time 60-240 min
[30] = Toxicity in male Sprague-Dawley rat assessed as catalepsy at 1 to 10 mg/kg, po measured after 60 mins; format: organism-based; settings: in vivo, 1 h, dose 1-10 mg/kg
[31] = Toxicity in male Wistar rat assessed as reduction in beta power at 10 mg/kg, po measured at 60 to 240 mins post treatment by EEG analysis; format: organism-based; settings: in vivo, time 60-240 min
[32] = target: Metabotropic glutamate receptor 7 (Homo sapiens, UniProt Q14831); assay: Positive allosteric modulation of human mGlu7 receptor
Chain of Metabotropic glutamate receptor 7 (Homo sapiens, UniProt Q14831) (Q14831 whole entry): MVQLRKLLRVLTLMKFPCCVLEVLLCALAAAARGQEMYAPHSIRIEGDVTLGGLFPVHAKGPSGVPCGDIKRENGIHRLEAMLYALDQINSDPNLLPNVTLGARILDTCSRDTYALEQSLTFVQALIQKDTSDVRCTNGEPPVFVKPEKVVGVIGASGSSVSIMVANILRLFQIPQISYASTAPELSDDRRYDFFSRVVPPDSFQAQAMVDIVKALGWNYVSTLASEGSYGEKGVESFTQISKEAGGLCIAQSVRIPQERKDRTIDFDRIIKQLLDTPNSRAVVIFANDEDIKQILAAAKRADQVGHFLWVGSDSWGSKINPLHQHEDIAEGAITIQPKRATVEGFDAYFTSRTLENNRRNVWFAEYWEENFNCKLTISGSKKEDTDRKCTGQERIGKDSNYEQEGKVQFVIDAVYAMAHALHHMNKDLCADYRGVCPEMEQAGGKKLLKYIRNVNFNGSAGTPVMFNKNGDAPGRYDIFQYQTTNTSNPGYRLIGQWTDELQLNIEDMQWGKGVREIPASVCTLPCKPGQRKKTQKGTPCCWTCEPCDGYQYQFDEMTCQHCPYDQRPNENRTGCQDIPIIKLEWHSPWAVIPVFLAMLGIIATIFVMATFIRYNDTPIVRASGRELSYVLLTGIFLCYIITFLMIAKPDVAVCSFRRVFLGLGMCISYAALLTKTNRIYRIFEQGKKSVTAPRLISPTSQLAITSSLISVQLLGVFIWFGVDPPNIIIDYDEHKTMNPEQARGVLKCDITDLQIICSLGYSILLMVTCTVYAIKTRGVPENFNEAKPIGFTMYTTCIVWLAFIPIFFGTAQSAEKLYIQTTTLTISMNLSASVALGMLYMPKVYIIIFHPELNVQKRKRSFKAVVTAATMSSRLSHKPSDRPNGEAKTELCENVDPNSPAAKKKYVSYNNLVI

[33] = target: T1, Metabotropic glutamate receptor 1 (Homo sapiens, UniProt Q13255); assay: Antagonist activity at mGlu1 receptor (unknown origin) assessed as desensitization of receptor at EC80 concentration; settings: filed as antagonist
Target sequence in this assay (Q13255 19-1194 limits assumed): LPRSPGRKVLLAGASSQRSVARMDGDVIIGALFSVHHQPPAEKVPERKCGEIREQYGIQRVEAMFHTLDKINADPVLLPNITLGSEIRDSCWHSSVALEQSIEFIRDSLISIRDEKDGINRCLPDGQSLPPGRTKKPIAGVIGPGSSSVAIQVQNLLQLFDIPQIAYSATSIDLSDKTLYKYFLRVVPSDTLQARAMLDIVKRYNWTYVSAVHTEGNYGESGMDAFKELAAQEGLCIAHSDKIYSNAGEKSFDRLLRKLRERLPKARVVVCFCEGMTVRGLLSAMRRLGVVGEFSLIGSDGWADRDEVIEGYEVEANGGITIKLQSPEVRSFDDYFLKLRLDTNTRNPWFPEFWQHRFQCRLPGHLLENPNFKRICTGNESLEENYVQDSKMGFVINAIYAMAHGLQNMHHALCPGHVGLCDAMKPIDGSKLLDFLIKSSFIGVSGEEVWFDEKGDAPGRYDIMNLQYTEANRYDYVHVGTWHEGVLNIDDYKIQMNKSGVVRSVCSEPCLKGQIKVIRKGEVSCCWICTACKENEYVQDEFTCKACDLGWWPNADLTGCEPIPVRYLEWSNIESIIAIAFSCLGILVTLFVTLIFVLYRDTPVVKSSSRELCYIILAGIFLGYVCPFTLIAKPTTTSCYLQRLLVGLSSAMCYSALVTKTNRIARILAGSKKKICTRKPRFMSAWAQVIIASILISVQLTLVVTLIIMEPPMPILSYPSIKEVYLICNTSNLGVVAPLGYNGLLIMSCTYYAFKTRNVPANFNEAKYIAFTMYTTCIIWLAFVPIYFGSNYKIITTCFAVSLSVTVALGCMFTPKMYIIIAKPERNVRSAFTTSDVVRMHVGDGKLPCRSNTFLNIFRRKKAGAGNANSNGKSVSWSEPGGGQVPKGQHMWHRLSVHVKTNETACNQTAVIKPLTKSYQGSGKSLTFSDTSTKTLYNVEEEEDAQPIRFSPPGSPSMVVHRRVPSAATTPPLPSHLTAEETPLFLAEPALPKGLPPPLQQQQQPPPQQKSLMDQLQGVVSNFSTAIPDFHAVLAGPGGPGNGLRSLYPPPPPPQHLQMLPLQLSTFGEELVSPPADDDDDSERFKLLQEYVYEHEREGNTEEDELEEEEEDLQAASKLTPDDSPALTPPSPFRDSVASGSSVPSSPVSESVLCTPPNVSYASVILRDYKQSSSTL

[34] = target: Metabotropic glutamate receptor 2 (Homo sapiens, UniProt Q14416); assay: Positive allosteric modulation of human mGlu2 receptor
Chain of Metabotropic glutamate receptor 2 (Homo sapiens, UniProt Q14416) (Q14416 whole entry): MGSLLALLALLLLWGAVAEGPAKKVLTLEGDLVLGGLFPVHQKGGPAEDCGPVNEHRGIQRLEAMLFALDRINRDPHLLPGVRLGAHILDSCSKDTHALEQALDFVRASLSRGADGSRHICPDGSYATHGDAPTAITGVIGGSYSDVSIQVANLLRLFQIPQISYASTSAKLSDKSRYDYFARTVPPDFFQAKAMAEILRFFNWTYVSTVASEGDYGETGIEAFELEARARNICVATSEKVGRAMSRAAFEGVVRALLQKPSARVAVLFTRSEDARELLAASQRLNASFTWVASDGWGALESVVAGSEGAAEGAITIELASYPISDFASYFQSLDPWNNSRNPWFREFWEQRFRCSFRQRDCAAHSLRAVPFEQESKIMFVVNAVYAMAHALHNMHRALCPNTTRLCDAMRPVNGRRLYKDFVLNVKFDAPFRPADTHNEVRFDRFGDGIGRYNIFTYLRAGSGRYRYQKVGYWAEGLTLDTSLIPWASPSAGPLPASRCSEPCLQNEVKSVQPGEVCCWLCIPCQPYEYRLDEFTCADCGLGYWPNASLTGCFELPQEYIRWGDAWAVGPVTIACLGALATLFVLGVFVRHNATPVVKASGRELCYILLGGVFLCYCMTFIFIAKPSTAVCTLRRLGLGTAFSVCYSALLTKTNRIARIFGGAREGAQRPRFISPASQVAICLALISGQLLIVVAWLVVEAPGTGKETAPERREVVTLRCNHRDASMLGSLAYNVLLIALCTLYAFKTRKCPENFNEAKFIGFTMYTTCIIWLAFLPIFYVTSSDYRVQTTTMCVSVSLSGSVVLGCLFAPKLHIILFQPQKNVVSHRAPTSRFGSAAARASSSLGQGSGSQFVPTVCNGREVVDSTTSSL

[35] = tested on: Mus musculus; assay: Reversal of MK-801 induced deficits in male C57BL/6JRj mouse model assessed as 40 Hz ASSR in prefrontal cortex at 0.8 mg/kg, sc measured after 15 mins; format: functional, organism-based
[36] = Drug metabolism in rat liver microsomes assessed as furanyl ring opening incubated for 60 mins; format: ADME, Microsome; settings: 1 h
[37] = tested on: Rattus norvegicus; assay: Antipsychotic efficacy against MK-801-induced po dosed male Sprague-Dawley rat assessed as reversal of MK-801 disruption by measuring recognition index measured after 30 mins by novel object recognition test; format: functional, organism-based; settings: dose 1-10 mg/kg
[38] = target: T1, Metabotropic glutamate receptor 1; assay: Positive allosteric modulation of mGlu1 receptor (unknown origin) in presence of glutamate at EC20 concentration; settings: filed as positive allosteric modulator
Target sequence in this assay (Q13255 19-1194 limits assumed): as the sequence (Q13255 19-1194 limits assumed) above

[39] = Cmax in amphetamine-induced male Sprague-Dawley rat model at 60 mg/kg and measured at 3.33 hrs post administration; format: ADME, organism-based; settings: in vivo
[40] = Unbound brain concentration in amphetamine-induced hyperlocomotion male Sprague-Dawley rat model at 3 mg/kg, po; format: ADME, organism-based; settings: in vivo
[41] = Glutathione reactivity in rat liver microsomes incubated for 1 hr in presence of glutathione; format: ADME, Microsome
[42] = target: Metabotropic glutamate receptor 8 (Rattus norvegicus, UniProt P70579); assay: Positive allosteric modulation of rat mGlu8 receptor
[43] = target: Metabotropic glutamate receptor 3 (Homo sapiens, UniProt Q14832); assay: Positive allosteric modulation of human mGlu3 receptor
[44] = target: Metabotropic glutamate receptor 4 (Rattus norvegicus, UniProt P31423); assay: Positive allosteric modulation of rat mGlu4 receptor
[45] = target: T1, Metabotropic glutamate receptor 1; assay: Agonist activity at mGlu1 receptor (unknown origin) upto 30 uM; format: functional
Target sequence in this assay (Q13255 19-1194 limits assumed): as above

[46] = Glutathione reactivity in human liver microsomes incubated for 1 hr in presence of glutathione; format: ADME, Microsome
[47] = Toxicity in male Wistar rat assessed as improvement in sleep-wake profile by measuring active wake state at 10 mg/kg, po measured at 120 mins post treatment by EEG analysis; format: organism-based; settings: in vivo, 2 h
[48] = Toxicity in male Wistar rat assessed as improvement in sleep-wake profile by measuring quiet wake state at 10 mg/kg, po measured at 120 mins post treatment by EEG analysis; format: organism-based; settings: in vivo, 2 h
[49] = tested on: Rattus norvegicus; assay: Antipsychotic efficacy against amphetamine-induced hyperlocomotion in male Sprague-Dawley rat assessed as reversal of hyperlocomotive state administered orally pretreated with compound followed by amphetamine addition and measured after 90 mins; format: functional, organism-based; settings: dose 1-10 mg/kg, route po
[50] = Toxicity in male Wistar rat assessed as change in body temperature at 10 mg/kg, po measured at 120 mins post treatment by EEG analysis; format: organism-based; settings: in vivo, 2 h
[51] = tested on: Mus musculus; assay: Reversal of MK-801 induced deficits in male C57BL/6JRj mouse model assessed as 40 Hz ASSR in prefrontal cortex at 4 to 10 mg/kg, sc measured after 15 mins; format: functional, organism-based; settings: dose 4-10 mg/kg
[52] = target: Metabotropic glutamate receptor 5 (Rattus norvegicus, UniProt P31424); assay: Positive allosteric modulation of rat mGlu5 receptor
[53] = target: T1, Metabotropic glutamate receptor 1; assay: Positive allosteric modulation of human mGlu1
Target sequence in this assay (Q13255 whole entry): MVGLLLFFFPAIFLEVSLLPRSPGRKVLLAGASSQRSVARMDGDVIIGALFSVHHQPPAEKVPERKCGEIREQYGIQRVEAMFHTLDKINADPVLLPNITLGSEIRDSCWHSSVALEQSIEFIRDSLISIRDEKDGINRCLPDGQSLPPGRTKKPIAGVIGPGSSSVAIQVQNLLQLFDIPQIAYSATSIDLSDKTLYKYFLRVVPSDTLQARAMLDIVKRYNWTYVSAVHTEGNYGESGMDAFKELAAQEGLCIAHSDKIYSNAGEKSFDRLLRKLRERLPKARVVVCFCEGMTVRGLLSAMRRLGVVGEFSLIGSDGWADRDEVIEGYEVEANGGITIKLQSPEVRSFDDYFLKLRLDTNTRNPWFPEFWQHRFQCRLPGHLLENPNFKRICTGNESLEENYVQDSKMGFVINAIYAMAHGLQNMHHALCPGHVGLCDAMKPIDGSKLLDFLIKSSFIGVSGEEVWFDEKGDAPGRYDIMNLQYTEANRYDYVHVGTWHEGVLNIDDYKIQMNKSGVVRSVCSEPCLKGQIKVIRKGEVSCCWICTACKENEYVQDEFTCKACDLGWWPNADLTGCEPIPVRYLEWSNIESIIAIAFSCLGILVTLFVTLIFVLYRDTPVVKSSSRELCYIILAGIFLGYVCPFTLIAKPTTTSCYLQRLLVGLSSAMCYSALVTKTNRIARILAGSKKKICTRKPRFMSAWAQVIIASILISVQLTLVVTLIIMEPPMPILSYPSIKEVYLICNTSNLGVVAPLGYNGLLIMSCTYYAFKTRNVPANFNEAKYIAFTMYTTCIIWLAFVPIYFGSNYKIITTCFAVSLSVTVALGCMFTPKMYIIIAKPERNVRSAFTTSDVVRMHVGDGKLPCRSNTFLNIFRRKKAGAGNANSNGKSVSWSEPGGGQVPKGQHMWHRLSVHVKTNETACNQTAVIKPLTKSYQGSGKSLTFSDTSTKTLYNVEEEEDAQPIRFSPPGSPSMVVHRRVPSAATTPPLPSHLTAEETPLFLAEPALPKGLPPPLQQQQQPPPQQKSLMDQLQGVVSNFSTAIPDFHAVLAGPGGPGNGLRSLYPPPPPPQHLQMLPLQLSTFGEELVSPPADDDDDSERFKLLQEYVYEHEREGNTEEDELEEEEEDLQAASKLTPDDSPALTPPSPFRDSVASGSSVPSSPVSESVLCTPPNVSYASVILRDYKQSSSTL

[54] = Unbound initial plasma concentration in male dog; format: ADME, Canis lupus familiaris
[55] = Initial plasma concentration in male dog; format: ADME, Canis lupus familiaris; settings: read-out: C0
[56] = Toxicity in male Sprague-Dawley rat assessed as catalepsy at 1.5 mg/kg, ip measured after 100 mins; format: organism-based; settings: in vivo, 1.667 h

In the case of `Cn1nc(-c2ccnn2C)cc1CNC(=O)c1cc(-c2ccco2)ccc1Cl`, the EC50 [1] is reported as > 30 µM, the Drug metabolism [2] is reported as “metabolite_notdetected” and the Activity [3] is reported as 27.3%. The Activity [4] was “Dose-dependent-effect”, the Activity [5] was 25.1% and the “C0(unbound)” value [6] was 80 nM. The EC50 [7] was > 30 µM, the EC50 [8] was > 30 µM and the Drug metabolism [9] was “metabolite_notdetected”. For the same compound, the Activity [10] was “Non-toxic”, the Drug metabolism [11] was “metabolite_notdetected” and the EC50 [12] was > 30 µM. The “Drug uptake(free)” value [13] was 44 nM, the Activity [14] was “Non-toxic” and the Activity [15] was “Active”. The “Drug uptake(free)” value [16] was 44 nM, the IC50 [17] was 0.207 µM and the “Drug uptake(free)” value [18] was 100 nM. For the same compound, the EC50 [19] was > 30 µM, the Stability [20] was “Stable” and the EC50 [21] was > 30 µM. The Activity [22] was “Non-toxic”, the “Drug uptake(free)” value [23] was 32 nM and the Stability [24] was “Stable”. For the same compound, the Activity [25] was “Non-toxic”, the Activity [26] was “Non-toxic” and the Activity [27] was “Active”. For the same compound, the “Drug uptake(free)” value [28] was 40 nM, the Activity [29] was “Non-toxic” and the Activity [30] was “Non-toxic”. The Activity [31] was “Non-toxic”, the EC50 [32] was > 30 µM and the Activity [33] was “Active; Slight Desensitization Was Observed”. For the same compound, the EC50 [34] was > 30 µM, the Activity [35] was “inactive” and the Drug metabolism [36] was “metabolite_notdetected”. For the same compound, the Activity [37] was “Dose-dependent-effect”, the Activity [38] was “Active” and the Cmax [39] was 313 nM. For the same compound, the “Drug uptake(free)” value [40] was 40 nM, the Drug metabolism [41] was “metabolite_detected” and the EC50 [42] was > 30 µM. For the same compound, the EC50 [43] was > 30 µM, the EC50 [44] was > 30 µM and the Activity [45] was “inactive”. For the same compound, the Drug metabolism [46] was “metabolite_detected”, the Activity [47] was “Non-toxic” and the Activity [48] was “Non-toxic”. The Activity [49] was “Dose-dependent-effect”, the Activity [50] was “Non-toxic” and the Activity [51] was “Active”. The EC50 [52] was > 30 µM.
In the case of `Cc1ccc2c(c1)C(=O)N(c1ccc(NC(=O)c3occc3C)c(F)c1)C2=O`, the EC50 [53] is reported as 0.013 µM, the “C0(unbound)” value [54] is reported as 36.4 nM and the concentration [55] is reported as 1100 nM.
In the case of `O=C(CCCN1CCC(O)(c2ccc(Cl)cc2)CC1)c1ccc(F)cc1` [HALOPERIDOL], the Activity [56] is reported as “Toxic”.
